In patent US20110039824A1, “1,2,3,6-tetrahydroazepino[4,5-b]indole-5-carboxylate nuclear receptor inhibitors” (Wyeth, priority 2008, published 2011):
Where a name gives a salt, the structure may show the parent alone.

Each molecule was assayed against T1, Gal4/hFXR fusion protein (Homo sapiens, UniProt Q96RI1) (assay: Gal4/hFXR fusion protein agonist activity in human 293 cells (luciferase)). Conditions: Gal4/FXR agonist potency in 293 cells; table does not say whether hFXR or mFXR; read-out: Potency Range.
T1 sequence (Q96RI1 262-486 limits assumed): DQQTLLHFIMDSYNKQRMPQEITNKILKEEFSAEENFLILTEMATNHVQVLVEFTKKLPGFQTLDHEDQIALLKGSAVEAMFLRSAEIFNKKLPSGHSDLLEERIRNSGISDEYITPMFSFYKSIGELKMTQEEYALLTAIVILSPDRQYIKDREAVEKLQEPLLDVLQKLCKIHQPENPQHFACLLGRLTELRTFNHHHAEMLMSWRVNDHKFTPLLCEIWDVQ
Format: cell-based
Parameters: Potency Range; other: Gal4/FXR agonist potency in 293 cells
Description: • Assay Medium: Phenol red free high glucose Dulbecco's modified Eagle's medium with sodium pyruvate (Cellgro, #17-205-CV) supplemented with 10% fetal bovine serum (Gibco, 16000-044), 1% glutamax (Gibco, 35050-061), 100 units/mL penicillin and 100 μg/mL streptomycin (Gibco, 15140-122). • Culturplate-96 (PerkinElmer, 6005688) • Lysis buffer (Promega, E3971) • Luciferase assay reagent (Promega E1483)
• 1. Compounds to be tested were prepared as 2× stocks in assay medium. • 2. […] The supernatant was removed and the cells were resuspended in 1 ml assay medium. The cells were counted and diluted in assay medium to 200,000 cells per ml. The cells were then plated at 10,000 cells per well in Culturplate-96 plates in 50 uL assay medium. The cells were incubated at 37° C. for approximately 1 hour. • 3. […] All assays included 1 uM GW4064 (Maloney et al., J. Med. Chem., 2000, 43(16), 2971-2974) as a reference standard. • 4. Cells were incubated for 24 hours at 37° C.
• 5. The medium was removed, and the cells were lysed in 25 uL lysis buffer (Promega, E3971). • 6. The plates were analyzed for luciferase activity with luciferase assay reagent (Promega E1483). Plates were read on Victor^3V instrument using the protocol “Shuguang Luciferase assay” (dispense volume=100 uL, plate type=“Packard Viewplate”, measurement height=8 mm from bottom of plate, 5 second read per well).
• 1. For agonist single point screening, data were analyzed in Excel. Each compound was tested in triplicate. • 2. For agonist potency determinations, statistical analysis of the data was performed using a customized Excel/SAS program. Dose response curves were generated using a four parameter (min, max, slope, and EC50 where EC50 is defined as the concentration which corresponds to midway between the estimated max and min) logistic model using log-transformed data (data was transformed on both sides with known lambda=0). • 3.

Row | SMILES | EC50 [nM]
1 | CC(C)OC(=O)C1=CN(C(=O)c2cccc(CN3CCC(N4CCCCC4)CC3)c2)CC(C)(C)c2c1[nH]c1ccccc21 [Example 11, Isopropyl 3-[3-(1,4′-bipiperidin-1′-ylmethyl)benzoyl]-1,1-dimethyl-1,2,3,6-tetrahydroazepino[4,5-b]indole-5-carboxylate] | 1000 to 10000
2 | CC(C)OC(=O)C1=CN(C(=O)c2cccc(CN3CCC(N4CCOCC4)CC3)c2)CC(C)(C)c2c1[nH]c1ccccc21 [Example 9, Isopropyl 1,1-dimethyl-3-{3-[(4-morpholin-4-ylpiperidin-1-yl)methyl]benzoyl}-1,2,3,6-tetrahydroazepino[4,5-b]indole-5-carboxylate] | 1000 to 10000
3 | CC(C)OC(=O)C1=CN(C(=O)c2cccc(CNC3CCNCC3)c2)CC(C)(C)c2c1[nH]c1ccccc21 [Example 22, Isopropyl 1,1-dimethyl-3-{3-[(piperidin-4-ylamino)methyl]benzoyl}-1,2,3,6-tetrahydroazepino[4,5-b]indole-5-carboxylate dihydrochloride] | 1000 to 10000
4 | CC(C)OC(=O)C1=CN(C(=O)c2cccc(CN3CCC(N4CCCC4)CC3)c2)CC(C)(C)c2c1[nH]c1ccccc21 [Example 12, Isopropyl 1,1-dimethyl-3-{3-[(4-pyrrolidin-1-ylpiperidin-1-yl)methyl]benzoyl}-1,2,3,6-tetrahydroazepino[4,5-b]indole-5-carboxylate] | 1000 to 10000
5 | CC(C)OC(=O)C1=CN(C(=O)c2cccc(CN3CCS(=O)(=O)CC3)c2)CC(C)(C)c2c1[nH]c1ccccc21 [Example 21, Isopropyl 3-{3-[(1,1-dioxidothiomorpholin-4-yl)methyl]benzoyl}-1,1-dimethyl-1,2,3,6-tetrahydroazepino[4,5-b]indole-5-carboxylate] | 500 to 1000
6 | CC(C)OC(=O)C1=CN(C(=O)c2cccc(CN3C[C@@H](C)N[C@@H](C)C3)c2)CC(C)(C)c2c1[nH]c1ccccc21 [Example 7, Isopropyl 3-(3-{[(3R,5S)-3,5-dimethylpiperazin-1-yl]methyl}benzoyl)-1,1-dimethyl-1,2,3,6-tetrahydroazepino[4,5-b]indole-5-carboxylate] | 500 to 1000
7 | CC(C)OC(=O)C1=CN(C(=O)c2cccc(CN3CCC(C(N)=O)CC3)c2)CC(C)(C)c2c1[nH]c1ccccc21 [Example 8, Isopropyl 3-{3-[(4-carbamoylpiperidin-1-yl)methyl]benzoyl}-1,1-dimethyl-1,2,3,6-tetrahydroazepino[4,5-b]indole-5-carboxylate] | 500 to 1000
8 | CC(C)OC(=O)C1=CN(C(=O)c2cccc(CN3C[C@H](C)C[C@H](C)C3)c2)CC(C)(C)c2c1[nH]c1ccccc21 [Example 14, Isopropyl 3-(3-{[(R3R,5S)-3,5-dimethylpiperidin-1-yl]methyl}benzoyl)-1,1-dimethyl-1,2,3,6-tetrahydroazepino[4,5-b]indole-5-carboxylate] | 1000 to 10000
9 | CC(C)OC(=O)C1=CN(C(=O)c2cccc(CN(C)C3CCCCC3)c2)CC(C)(C)c2c1[nH]c1ccccc21 [Example 18, Isopropyl 3-(3-{[cyclohexyl(methyl)amino]methyl}benzoyl)-1,1-dimethyl-1,2,3,6-tetrahydroazepino[4,5-b]indole-5-carboxylate] | 500 to 1000
10 | CC(C)OC(=O)C1=CN(C(=O)c2cccc(CN3[C@@H](C)CC[C@@H]3C)c2)CC(C)(C)c2c1[nH]c1ccccc21 [Example 16, Isopropyl 3-(3-{[(2S,5S)-2,5-dimethylpyrrolidin-1-yl]methyl}benzoyl)-1,1-dimethyl-1,2,3,6-tetrahydroazepino[4,5-b]indole-5-carboxylate] | 1000 to 10000

The remaining lines, values ahead:

Row | EC50 [nM] | SMILES
11 | 100 to 500 | CC(C)OC(=O)C1=CN(C(=O)c2cccc(CN3CCSC3)c2)CC(C)(C)c2c1[nH]c1ccccc21 [Example 10, Isopropyl 1,1-dimethyl-3-[3-(1,3-thiazolidin-3-ylmethyl)benzoyl]-1,2,3,6-tetrahydroazepino[4,5-b]indole-5-carboxylate]
12 | 500 to 1000 | CC(C)OC(=O)C1=CN(C(=O)c2cccc(CNC3CCCCC3)c2)CC(C)(C)c2c1[nH]c1ccccc21 [Example 17, Isopropyl 3-{3-[(cyclohexylamino)methyl]benzoyl}-1,1-dimethyl-1,2,3,6-tetrahydroazepino[4,5-b]indole-5-carboxylate]
13 | 100 to 500 | CC(C)OC(=O)C1=CN(C(=O)c2cccc(CN3C[C@@H](C)C[C@H](C)C3)c2)CC(C)(C)c2c1[nH]c1ccccc21 [Example 13, Isopropyl 3-(3-{[(3S,5S)-3,5-dimethylpiperidin-1-yl]methyl}benzoyl)-1,1-dimethyl-1,2,3,6-tetrahydroazepino[4,5-b]indole-5-carboxylate]
14 | 500 to 1000 | CC(C)OC(=O)C1=CN(C(=O)c2cccc(CN3CCCC(C(N)=O)C3)c2)CC(C)(C)c2c1[nH]c1ccccc21 (stereo not drawn) [Example 20, isopropyl 3-{3-[(3-carbamoylpiperidin-1-yl)methyl]benzoyl}-1,1-dimethyl-1,2,3,6-tetrahydroazepino[4,5-b]indole-5-carboxylate]
15 | 100 to 500 | CC(C)OC(=O)C1=CN(C(=O)c2cccc(CN3C[C@@H](C)O[C@H](C)C3)c2)CC(C)(C)c2c1[nH]c1ccccc21 [Example 5, Isopropyl 3-(3-{[(2R,6R)-2,6-dimethylmorpholin-4-yl]methyl}benzoyl)-1,1-dimethyl-1,2,3,6-tetrahydroazepino[4,5-b]indole-5-carboxylate]
16 | 100 to 500 | CC(C)OC(=O)C1=CN(C(=O)c2cccc(CN3CCSCC3)c2)CC(C)(C)c2c1[nH]c1ccccc21 [Example 15, Isopropyl 1,1-dimethyl-3-[3-(thiomorpholin-4-ylmethyl)benzoyl]-1,2,3,6-tetrahydroazepino[4,5-b]indole-5-carboxylate]
17 | 500 to 1000 | CC(C)OC(=O)C1=CN(C(=O)c2cccc(CN3C[C@@H](C)O[C@@H](C)C3)c2)CC(C)(C)c2c1[nH]c1ccccc21 [Example 6, Isopropyl 3-(3-{[(2R,6S)-2,6-dimethylmorpholin-4-yl]methyl}benzoyl)-1,1-dimethyl-1,2,3,6-tetrahydroazepino[4,5-b]indole-5-carboxylate]
18 | 500 to 1000 | CC(C)OC(=O)C1=CN(C(=O)c2cccc(CN3CCC(O)CC3)c2)CC(C)(C)c2c1[nH]c1ccccc21 [Example 19, Isopropyl 3-{3-[(4-hydroxypiperidin-1-yl)methyl]benzoyl}-1,1-dimethyl-1,2,3,6-tetrahydroazepino[4,5-b]indole-5-carboxylate]
